# Data: patent US20130109734A1 (Metabolex, Inc., priority 2010, published 2013)
# Target: T1, human GPR120 (Homo sapiens, UniProt Q5NUL3)
# T1 construct: host or cells: HEK293 cells co-expressing Gqi5
# T1 sequence (Q5NUL3 1-361): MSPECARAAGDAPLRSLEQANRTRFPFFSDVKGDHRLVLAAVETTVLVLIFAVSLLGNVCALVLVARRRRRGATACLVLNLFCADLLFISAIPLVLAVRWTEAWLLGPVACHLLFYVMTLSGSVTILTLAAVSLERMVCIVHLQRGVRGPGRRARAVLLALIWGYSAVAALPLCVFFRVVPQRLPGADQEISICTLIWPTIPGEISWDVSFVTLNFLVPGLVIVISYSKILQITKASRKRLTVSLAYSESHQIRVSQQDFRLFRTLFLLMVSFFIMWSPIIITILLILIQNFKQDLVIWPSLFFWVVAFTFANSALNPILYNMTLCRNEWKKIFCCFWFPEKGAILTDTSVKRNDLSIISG
# Assay: Intracellular Ca2+ assay in human GPR120 stable cell line (HEK293 co-expressing Gqi5), Flexstation
# Type: cell-based
# Settings: % activity at 5 μM compared to the maximal activity of GW9508 at 6.7 μM (=100%); human GPR120 cells, Ca2+ fluorescence
# Procedure, shortened: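 HEK293 cells stably co-expressing Gqi5 and Flag-tagged human GPR120, loaded with Calcium 4 dye in HBSS/HEPES pH 7.4 at 37 °C; compounds at eight concentrations, 0.00001–20 μM, fluorescence (485/525 nm) read 90 s. EC50 from Max−Min change; percent activity relative to GW9508 maximum at 6.7 μM.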
row,% Activity (GW9508 Reference Compound) [%],SMILES
1,105.44,"CC1(C)Cc2cc(Cl)cc(COc3ccc4c(c3)CC[C@@H]4CC(=O)O)c2O1 [Example 179, (R)-2-(5-((5-chloro-2,2-dimethyl-2,3-dihydrobenzofuran-7-yl)methoxy)-2,3-dihydro-1H-inden-1-yl)acetic acid]"
2,104.04,"CC1(C)Cc2c(COc3ccc4c(c3)CC[C@@H]4CC(=O)O)cc(F)cc2O1 [Example 188, (R)-2-(5-((6-fluoro-2,2-dimethyl-2,3-dihydrobenzofuran-4-yl)methoxy)-2,3-dihydro-1H-inden-1-yl)acetic acid]"
3,148.21,"COc1cc(OCc2cc(Cl)cc3c2OC2(CCCC2)C3)ccc1CCC(=O)O [Example 194, 3-(4-((5-chloro-3H-spiro[benzofuran-2,1′-cyclopentane]-7-yl)methoxy)-2-methoxyphenyl)propanoic acid]"
4,111.45,"Cc1cc(OCc2cc(F)cc3c2OC(C)(C)C3)c(C)cc1CCC(=O)O [Example 206, 3-(4-((5-fluoro-2,2-dimethyl-2,3-dihydrobenzofuran-7-yl)methoxy)-2,5-dimethylphenyl)propanoic acid]"
5,147.47,"Cc1c(CCC(=O)O)ccc(OCc2cc(F)cc3c2OC(C)(C)C3)c1C [Example 208, 3-(4-((5-fluoro-2,2-dimethyl-2,3-dihydrobenzofuran-7-yl)methoxy)-2,3-dimethylphenyl)propanoic acid]"
6,144.23,"CCc1c(CCC(=O)O)ccc(OCc2cc(F)cc3c2OC(C)(C)C3)c1F [Example 216, 3-(2-ethyl-3-fluoro-4-((5-fluoro-2,2-dimethyl-2,3-dihydrobenzofuran-7-yl)methoxy)phenyl)propanoic acid]"
7,101.01,"[2H]C([2H])(Oc1ccc(CC(C)C(=O)O)cc1C(F)(F)F)c1cc(F)cc2c1OC(C)(C)C2 (centres unmarked) [Example 231, 3-(4-(dideuterio(5-fluoro-2,2-dimethyl-2,3-dihydrobenzofuran-7-yl)methoxy)-3-(trifluoromethyl)phenyl)-2-methylpropanoic acid]"
8,10.23,"CC1(C)Cc2cc(Cl)cc(COc3ccccc3CCC(=O)O)c2O1 [Example 250, 3-(2-((5-chloro-2,2-dimethyl-2,3-dihydrobenzofuran-7-yl)methoxy)phenyl)propanoic acid]"
9,108.78,"Cc1nc2cccc(COc3c(F)cc(CC(C)C(=O)O)cc3F)c2o1 (centres unmarked) [Example 261, 3-(3,5-difluoro-4-((2-methylbenzo[d]oxazol-7-yl)methoxy)phenyl)-2-methylpropanoic acid]"
10,137.39,"CC1(C)Cc2cc(F)cc(COc3ccc4c(CC(=O)O)coc4c3)c2O1 [Example 262, 2-(6-((5-fluoro-2,2-dimethyl-2,3-dihydrobenzofuran-7-yl)methoxy)benzofuran-3-yl)acetic acid]"
11,5.98,"CC1(C)Cc2cc(F)cc(COc3ccc4c(CC(=O)O)cc(=O)oc4c3)c2O1 [Example 263, 2-(7-((5-fluoro-2,2-dimethyl-2,3-dihydrobenzofuran-7-yl)methoxy)-2-oxo-2H-chromen-4-yl)acetic acid]"
12,110.24,"CC(Cc1ccc(OCc2cc(F)cc3c2OC(C)(C)C3)cc1)C(=O)NO (centres unmarked) [Example 264, 3-(4-((5-fluoro-2,2-dimethyl-2,3-dihydrobenzofuran-7-yl)methoxy)phenyl)-N-hydroxy-2-methylpropanamide]"

# The next lines start with the compound.
row,SMILES,% Activity (GW9508 Reference Compound) [%]
1,"COc1cc(CCC(=O)O)ccc1OCc1cc(F)cc2c1OC(C)(C)C2 [Example 173, 3-(4-((5-fluoro-2,2-dimethyl-2,3-dihydrobenzofuran-7-yl)methoxy)-3-methoxyphenyl)propanoic acid]",159.06
2,"CC1(C)Cc2cc(F)cc(COc3ccc4c(c3)CC[C@H]4CC(=O)O)c2O1 [Example 175, (S)-2-(5-((5-fluoro-2,2-dimethyl-2,3-dihydrobenzofuran-7-yl)methoxy)-2,3-dihydro-1H-inden-1-yl)acetic acid]",152.44
3,"CC1(C)Cc2cc(Cl)cc(COc3ccc4c(c3)CC[C@H]4CC(=O)O)c2O1 [Example 176, (S)-2-(5-((5-chloro-2,2-dimethyl-2,3-dihydrobenzofuran-7-yl)methoxy)-2,3-dihydro-1H-inden-1-yl)acetic acid]",138.42
4,"CC1(C)Cc2cc(F)cc(COc3ccc4c(c3)CC[C@@H]4CC(=O)O)c2O1 [Example 178, (R)-2-(5-((5-fluoro-2,2-dimethyl-2,3-dihydrobenzofuran-7-yl)methoxy)-2,3-dihydro-1H-inden-1-yl)acetic acid]",106
5,"CC(CC(=O)O)Cc1ccc(OCc2cc(F)cc3c2OC(C)(C)C3)cc1 (centres unmarked) [Example 182, 4-(4-((5-fluoro-2,2-dimethyl-2,3-dihydrobenzofuran-7-yl)methoxy)phenyl)-3-methylbutanoic acid]",98.43
6,"CC1(C)Cc2cc(F)cc(COc3cc(Cl)c(CCC(=O)O)c(Cl)c3)c2O1 [Example 197, 3-(2,6-dichloro-4-((5-fluoro-2,2-dimethyl-2,3-dihydrobenzofuran-7-yl)methoxy)phenyl)propanoic acid]",151.44
7,"Cc1c(CCC(=O)O)ccc(OCc2cc(Cl)cc3c2OC(C)(C)C3)c1C [Example 209, 3-(4-((5-chloro-2,2-dimethyl-2,3-dihydrobenzofuran-7-yl)methoxy)-2,3-dimethylphenyl)propanoic acid]",142.22
8,"Cc1cc(OCc2cc(F)cc3c2OC(C)(C)C3)c(F)cc1CCC(=O)O [Example 214, 3-(5-fluoro-4-((5-fluoro-2,2-dimethyl-2,3-dihydrobenzofuran-7-yl)methoxy)-2-methylphenyl)propanoic acid]",143.21
9,"CC1(C)Cc2cc(F)cc(COc3ccc(CCC(=O)O)c4c3CCCC4)c2O1 [Example 218, 3-(4-((5-fluoro-2,2-dimethyl-2,3-dihydrobenzofuran-7-yl)methoxy)-5,6,7,8-tetrahydronaphthalen-1-yl)propanoic acid]",114.48
10,"CCc1cc(OCc2cc(F)cc3c2OC(C)(C)C3)c(F)cc1CCC(=O)O [Example 220, 3-(2-ethyl-5-fluoro-4-((5-fluoro-2,2-dimethyl-2,3-dihydrobenzofuran-7-yl)methoxy)phenyl)propanoic acid]",115.86
11,"[2H]C([2H])(Oc1ccc(CCC(=O)O)c(CC)c1F)c1cc(F)cc2c1OC(C)(C)C2 [Example 228, 3-(4-(dideuterio(5-fluoro-2,2-dimethyl-2,3-dihydrobenzofuran-7-yl)methoxy)-3-fluoro-2-ethylphenyl)propanoic acid]",119.11
12,"[2H]C([2H])(Oc1ccc(CC(C)C(=O)O)cc1F)c1cc(F)cc2c1OC(C)(C)C2 (centres unmarked) [Example 230, 3-(4-(dideuterio(5-fluoro-2,2-dimethyl-2,3-dihydrobenzofuran-7-yl)methoxy)-3-fluorophenyl)-2-methylpropanoic acid]",86.25
13,"[2H]C([2H])(C(=O)O)C([2H])([2H])c1ccc(OCc2cc(Cl)cc3c2OC(C)(C)C3)c(F)c1 [Example 241, 3-(4-((5-chloro-2,2-dimethyl-2,3-dihydrobenzofuran-7-yl)methoxy)-3-fluorophenyl)-2,2,3,3-tetradeuteriopropanoic acid]",159.62
14,"[2H]C([2H])(C(=O)O)C([2H])([2H])c1ccc(OCc2cc(F)cc3c2OC(C)(C)C3)c(F)c1CC [Example 243, 3-(2-ethyl-3-fluoro-4-((5-fluoro-2,2-dimethyl-2,3-dihydrobenzofuran-7-yl)methoxy)phenyl)-2,2,3,3-tetradeuteriopropanoic acid]",155.23
15,"CC(Cc1cccc(OCc2cc(Cl)cc3c2OC(C)(C)C3)c1)C(=O)O (centres unmarked) [Example 251, 3-(3-((5-chloro-2,2-dimethyl-2,3-dihydrobenzofuran-7-yl)methoxy)phenyl)-2-methylpropanoic acid]",61.14
16,"Cc1cc(CCC(=O)O)c(C)c(C)c1OCc1cc(F)cc2c1OC(C)(C)C2 [Example 254, 3-(4-((5-fluoro-2,2-dimethyl-2,3-dihydrobenzofuran-7-yl)methoxy)-2,3,5-trimethylphenyl) propanoic acid]",146.14
17,"CC(C)Oc1ccc(Cl)cc1COc1cc2c(cc1F)C(CC(=O)O)CC2 (centres unmarked) [Example 257, 2-(5-((5-chloro-2-isopropoxybenzyl)oxy)-6-fluoro-2,3-dihydro-1H-inden-1-yl)acetic acid]",124.62
18,"CC(C)Oc1ccc(Cl)cc1COc1ccc2c(c1)CCC2CC(=O)O (centres unmarked) [Example 258, 2-(5-((5-chloro-2-isopropoxybenzyl)oxy)-2,3-dihydro-1H-inden-1-yl)acetic acid]",139.95
19,"CC(C)Oc1ncccc1COc1ccc2c(c1)CCC2CC(=O)O (centres unmarked) [Example 259, 2-(5-((2-isopropoxypyridin-3-yl)methoxy)-2,3-dihydro-1H-inden-1-yl)acetic acid]",118.5
20,"CC(Cc1cc(F)c(OCc2cccc3cn[nH]c23)c(F)c1)C(=O)O (centres unmarked) [Example 260, 3-(4-((1H-indazol-7-yl)methoxy)-3,5-difluorophenyl)-2-methylpropanoic acid]",16.67
